Assay results taken from USRE50957E1, “Molecular rheostat for cofactor balance” (The Regents of the University of California, priority 2016, dated 2026).

How the values were obtained:
[1] = molecular target: G. stearothermophilus glyceraldehyde-3-phosphate dehydrogenase (GsGap) mutant mGapDH (mGap, gapDH M6), D34A/L35R/T36K relative to SEQ ID NO:6 (Geobacillus stearothermophilus, UniProt P00362, D34A/L35R/T36K); experiment: Kinetics and cofactor specificity of triple mutant mGap (mGapDH); type: biochemical, G. stearothermophilus ATCC12980; conditions: 50 mM tris pH 7.5, 340 nm
Experimental: Enzyme activity and optimization. All of the enzymes used in this work were assayed. The enzymes were assayed in 50 mM tris buffer pH 7.5, 5 mM MgCl, and 5 mM KCl which mirrors the final reaction conditions. The activity of NAD(P)H producing or consuming reactions were monitored at 340 nm. The activity of ATP consuming enzymes were monitored using a coupled assay with Zwf and NADP^+ at 340 nm.
To implement the “molecular rheostat” module, GapDH enzyme was engineered that efficiently uses NADP^+. […] Although the cofactor specificity of GsGap has adjusted before by sequence-based design, the mutant only slightly preferred NADP^+ over NAD^+. To more strongly flip the cofactor specificity of GsGap the crystal structure was examined and basic residues introduced into the loop region proximate to the 2′OH of NAD′ that may help stabilize binding of a 2′ phosphate in NADP^+. A series of mutations were made altering residues D34, L35, and T36 of SEQ ID NO:6. The kinetics and specificity of the best enzyme, a D34A/L35R/T36K triple mutant (herein referred to as mGap), were obtained.

[2] = molecular target: G. stearothermophilus glyceraldehyde-3-phosphate dehydrogenase (GsGap, gapDH WT), wild type, SEQ ID NO:6 (Geobacillus stearothermophilus, UniProt P00362); experiment: Kinetics and cofactor specificity of wild type GsGap (gapDH WT); conditions: cofactor, 50 mM tris pH 7.5, 340 nm
Sequence of G. stearothermophilus glyceraldehyde-3-phosphate dehydrogenase (GsGap, gapDH WT), wild type, SEQ ID NO:6 (P00362 whole entry): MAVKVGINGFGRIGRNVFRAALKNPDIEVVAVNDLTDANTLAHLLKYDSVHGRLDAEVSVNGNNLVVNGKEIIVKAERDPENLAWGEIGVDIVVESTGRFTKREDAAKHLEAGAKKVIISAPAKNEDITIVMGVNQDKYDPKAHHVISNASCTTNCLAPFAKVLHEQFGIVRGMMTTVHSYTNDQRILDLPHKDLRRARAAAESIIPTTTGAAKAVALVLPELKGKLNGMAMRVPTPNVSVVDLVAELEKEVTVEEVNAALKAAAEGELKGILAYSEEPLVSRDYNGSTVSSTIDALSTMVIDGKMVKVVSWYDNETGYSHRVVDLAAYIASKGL

Sequence of G. stearothermophilus glyceraldehyde-3-phosphate dehydrogenase (GsGap) mutant mGapDH (mGap, gapDH M6), D34A/L35R/T36K relative to SEQ ID NO:6 (P00362 whole entry D34A/L35R/T36K): as the sequence (P00362 whole entry) above, with D34A, L35R, T36K counted along it

NC(=O)c1ccc[n+]([C@@H]2O[C@H](COP(=O)([O-])OP(=O)(O)OC[C@H]3O[C@@H](n4cnc5c(N)ncnc54)[C@H](O)[C@@H]3O)[C@@H](O)[C@H]2O)c1 [NAD+, nicotinamide adenine dinucleotide]
kcat ([1]; cofactor varied): 0.2 ± 0.04 µM/min/mg | Km ([1]; cofactor): 600 ± 400 µM | Km [2]: 1500 ± 300 µM
